Earlier results as cited in US20100247512A1, “Pericellular Collagenase Directs the 3-Dimensional Development of White Adipose Tissue” (The Regents of the University of Michigan, priority 2006, published 2010).
The star is where a group is joined. Decanoyl = CCCCCCCCCC(=O)*; CH2Cl = ClC*

Columns and labels:
pro-MT1-MMP = settings: Rosenthal, et al., 2005
MT1-MMP = MT1-MMP (Homo sapiens, UniProt P50281); settings: Rosenthal, et al., 2005

| Substance | inhibition of intracellular conversion of pro-MT1-MMP to its active form (pro-MT1-MMP) | inhibition of MT1-MMP, blocking collagenolysis (MT1-MMP) |
| --- | --- | --- |
| deconyl-Arg-Val-Lys-Arg-CMK (Decanoyl-RVKR-CH2Cl) | inhibits the intracellular conversion of pro-MT1-MMP to its active form | – |
| TIMP-1: member of the tissue inhibitors of metalloproteinases (TIMPs), a family of natural protein MMP inhibitors | – | poor inhibitor of MT1-MMP |
